Results from US9056835B2, “LPA2 receptor-specific benzoic acid derivatives” (University of Tennessee Research Foundation, priority 2012, dated 2015).

Target: T1, LPA3 (Homo sapiens, UniProt Q9UBY5)
T1 construct: expressed in transfected cells
T1 sequence (Q9UBY5 1-353): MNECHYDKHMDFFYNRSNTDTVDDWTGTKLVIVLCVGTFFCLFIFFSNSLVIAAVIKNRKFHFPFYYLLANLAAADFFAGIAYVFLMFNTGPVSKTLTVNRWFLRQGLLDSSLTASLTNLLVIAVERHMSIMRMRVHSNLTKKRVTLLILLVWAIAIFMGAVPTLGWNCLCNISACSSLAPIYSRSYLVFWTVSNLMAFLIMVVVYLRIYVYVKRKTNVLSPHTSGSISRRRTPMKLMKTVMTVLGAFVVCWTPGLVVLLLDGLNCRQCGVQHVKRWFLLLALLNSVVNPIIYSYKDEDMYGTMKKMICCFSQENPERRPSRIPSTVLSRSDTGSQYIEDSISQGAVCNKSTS
Test: LPA receptor-mediated Ca2+ mobilization assay, LPA3
Assay type: cell-based
Details: for LPA3 Imax (%): inhibition by 10 μM compound of ~EC75 LPA 18:1 Ca2+ response; for inhibition of LPA3 Ca2+ response: 10 μM, ~EC75 LPA 18:1
Procedure: Similarity searches were performed separately using each fingerprint to quantitate similarity. Hits meeting the 80% similarity threshold from each search were ranked based on the Tanimoto coefficient measure of similarity to a target molecule NSC12404, and the top 75 unique hits from each fingerprint search were selected for further analysis. The 225 compounds selected for further analysis were clustered based on Tanimoto coefficients calculated using Molecular ACCess System-key fingerprints (MACCS keys) and evaluated using the diversity subset function implemented in MOE. This selected a diverse subset of 27 compounds for biological evaluation by choosing the middle compounds in each cluster. These 27 compounds were tested in Ca^2+ mobilization assays at a concentration of 10 μM using stable cell lines individually expressing LPA2 and also in vector-transfected control cells. Hits activating LPA2 were further tested using cells expressing the other established and putative LPA GPCRs. […] They arbitrarily selected GRI977143 for further characterization in cell-based assays.
J Biol Chem (2009) 284(25): 17304-17319). […] The cells were loaded with Fura-2-acetoxymethyl esther (Fura-2/AM) in Krebs buffer containing 0.01% pluronic acid for 30 min and rinsed with Krebs buffer before measuring Ca^2+ mobilization. The ratio of peak emissions at 510 nm after 2 min of ligand addition was determined for excitation wavelengths of 340 nm/380 nm. All samples were run in quadruplicate. […] The half maximally effective concentration (EC50), and inhibitory constant (Ki) values were calculated by fitting a sigmoid function to dose-response data points using KaleidaGraph software (version 4.1, Synergy Software; […]).
Mouse embryonic fibroblast (MEF) cells were isolated from E13.5 LPA1&2 double knockout (DKO) embryos. MEFs were transduced with empty vector or LPA2-containing lentiviruses and selected with 1.5 μg/ml puromycin. Cells were maintained in Dulbecco's modified Eagle medium (DMEM) supplemented with 10% (V/V) fetal bovine serum (FBS), 2 mM L-glutamine, 100 U/mL penicillin, and 100 μg/mL streptomycin. Serum-free medium contained 0.1% (W/V) BSA in DMEM. The rat intestinal epithelial cell line 6 (IEC-6) was obtained from the American Type Culture Collection (Rockville, Md.) at passage 13; passages 16-21 were used in all experiments. IEC-6 cells were maintained in a humidified 37° C. incubator in an atmosphere of 90% air and 10% CO2. Growth medium consisted of DMEM supplemented with 5% heat inactivated FBS, 10 μg/mL insulin, and 50 μg/mL gentamycin. The composition of the serum-starvation medium was the same as that of the full growth medium except that it contained no FBS. The McArdle rat hepatoma cell line (RH7777) stably expressing LPA2 receptors was a gift from Dr. Fumikazu Okajima (Gunma University, Maebashi, Japan). RH7777 cells stably expressing LPA1 or LPA3 receptors were generated in-house and had been characterized earlier. Wild type and LPA receptor (LPAR) stably transfected RH7777 cells were grown in DMEM supplemented with 10% FBS and 2 mM L-glutamine in the presence of 250 μg/ml G418. Chinese hamster ovary (CHO) cells stably expressing either vector or LPA4 receptor were a kind gift from Dr. Takao Shimizu (Tokyo University; Tokyo, Japan). Cells were cultured in Ham's F12 medium containing 10% FBS, 2 mM L-glutamine, and 350 μg/ml G418. Rat neuroblastoma cells (B103) were transduced with the lentivirus harboring wild type of FLAG-LPA5 and selected with puromycin to establish the stable cell lines. The stable cells were maintained in DMEM supplemented with 10% FBS and 0.4 μg/ml puromycin. GPR87- and P2Y10-expressing CHO cells and vector-transfected control cells were a gift from Dr. Norihisha Fujita (Ritsumeikan University; Shiga, Japan).

Row | Molecule | LPA3 Imax (%) | EC50 (agonist, Ca2+ mobilization) [nM] | inhibition of LPA3 Ca2+ response | Ki (antagonist, Ca2+ mobilization, read-out: LPA3 K) [nM]
1 | O=C(O)c1cc(Cl)c(Cl)cc1C(=O)Nc1ccc2c(c1)C(=O)c1ccccc1-2 [Compound H2L5547924] | 66 | – | – | –
2 | octadecenyl thiophosphate [OTP] | – | 297 | – | –
3 | O=C(O)c1ccccc1C(=O)Nc1ccc2c(c1)C(=O)c1ccccc1-2 [NSC12404] | 61 | – | inhibited LPA3 | –
4 | O=C(O)c1ccccc1C(=O)Nc1ccc2c(c1)C(=O)c1ccccc1C2=O [Compound H2L5828102] | 100 | – | fully inhibited | 1500
5 | O=C(O)c1ccccc1SCCCN1C(=O)c2cccc3cccc(c23)C1=O [GRI977143] | 55 | – | inhibited LPA3 | –
